{"source": "patent US4201866A", "about": "“O-Hemi-succinate of propranolol” (American Home Products Corporation, priority 1977, dated 1980)", "key": {"[1]": {"assay": "Oral administration of propranolol-o-hemi-succinate HCl and propranolol HCl; plasma levels of free propranolol (Example 2)", "type": "in vivo, beagle dogs", "details": "80 mg propranolol HCl or equivalent", "procedure": "In this experiment, four beagle dogs were given an 80 mg. oral dose of propranolol HCl or an equivalent dose of the o-hemi-succinate. The animals were divided into two groups of two, each group receiving the drugs according to a crossover design. The crossover experiment was repeated twice. A period of at least one week elapsed between each dosing day. Blood samples were obtained at regular intervals after dosing a plasma was analyzed for free propranolol concentrations.\n(§1) Plasma was analyzed for free propranolol by a TLC fluorometric procedure. Two ml samples were mixed with 2 ml of pH 10 buffer and extracted with 25 ml of ethyl ether. A 20 ml aliquot from the ether phase was evaporated to dryness and the dry residue was dissolved in 100 μl of ethanol. Twenty-five μl aliquots were spotted on TLC plates of silica gel along with standard solutions of propranolol. The plates were developed in a saturated tank containing the solvent system methanol (100 ml): concentrated NH4 OH (0.4 ml). After development, the plates were dried and sprayed with a 50% solution of propylene glycol in water. They were then read in the fluorescence mode of a Schoeffel spectrodensitometer. The limit of reliable quantitation was 2 ng. of propranolol per ml of plasma."}, "[2]": {"assay": "Intravenous administration of propranolol HCl and propranolol-o-hemi-succinate HCl; plasma levels of free propranolol (Example 3)", "type": "in vivo, beagle dogs", "details": "i.v., 20 mg propranolol HCl or equivalent", "procedure": "as §1\nIn this experiment, the same four dogs used in Example 2 were administered a 20 mg intravenous dose of propranolol HCl on one experimental day and an equivalent dose of the o-hemi-succinate on a second day. A period of one week elapsed between each administration. Blood samples were collected and analyzed as above."}, "[3]": {"assay": "Oral administration of a reduced dose of propranolol-o-hemi-succinate hydrochloride; plasma levels of free propranolol (Example 4)", "type": "in vivo, beagle dogs", "procedure": "Two beagle dogs were given an oral dose of 13.4 mg of propranolol-O-hemi-succinate hydrochloride (equivalent to 10 mg. propranolol HCl). Blood samples were obtained at regular intervals after drug administration and plasma analyzed for free propranolol. Plasma levels of free propranolol were compared to those obtained following administration of 80 mg dose of propranolol HCl."}, "[4]": {"details": "cited from earlier work"}}, "note": "Values joined by “and” are separate entries in the source; they are usually repeats but may differ in a detail not shown here. Equal entries are not always repeated. Structures can show the parent of a compound that is named as a salt. Where two headings read alike, the source gives them in different places.", "data": [{"smiles": "CC(C)NCC(O)COc1cccc2ccccc12", "note": "(centres unmarked) [propranolol HCl, 1-isopropyl-amino-3-(1-naphthoxy)-2-propanol]", "values": [{"measurement": "Plasma level of free propranolol", "setting": "[1]; 0 h, individual dogs", "result": 0, "unit": "ng/mL"}, {"measurement": "Mean plasma level of free propranolol", "setting": "[1]; 0 h, mean of Study 1, Study 2 or overall", "result": 0, "unit": "ng/mL"}, {"measurement": "C.V. of overall mean AUC 0-6 hr", "setting": "[1]", "result": 65, "unit": "%"}, {"measurement": "s.d. of overall mean AUC 0-6 hr", "setting": "[1]", "result": 87, "unit": "ng·h/mL"}, {"measurement": "AUC 0-6 hr of free propranolol", "setting": "[1]; individual dogs, listed as propranolol hydrochloride, 360 min", "result": "69 ng·h/mL and 63 ng·h/mL and 29 ng·h/mL and 160 ng·h/mL and 189 ng·h/mL and 171 ng·h/mL and 297 ng·h/mL and 99 ng·h/mL"}, {"measurement": "Plasma level of free propranolol", "setting": "[1]; 1/2 hr after dosing, individual dogs", "result": 0, "unit": "ng/mL"}, {"measurement": "Plasma level of free propranolol", "setting": "[1]; 1/2 hr after dosing, individual dogs, 30 min, listed as propranolol hydrochloride, 30 min", "result": "23 ng/mL and 103 ng/mL and 24 ng/mL"}, {"measurement": "Plasma level of free propranolol", "setting": "[1]; 1/2 hr after dosing, individual dogs, listed as propranolol hydrochloride", "result": "trace"}, {"measurement": "Plasma level of free propranolol", "setting": "[1]; 1 hr after dosing, individual dogs, listed as propranolol hydrochloride", "result": "trace and 0 ng/ml"}, {"measurement": "Plasma level of free propranolol", "setting": "[1]; 1 hr after dosing, individual dogs, listed as propranolol hydrochloride, 60 min", "result": "11 ng/mL and 56 ng/mL and 31 ng/mL and 101 ng/mL and 24 ng/mL"}, {"measurement": "Plasma level of free propranolol", "setting": "[1]; 2 hr after dosing, individual dogs, listed as propranolol hydrochloride", "result": "trace"}, {"measurement": "Plasma level of free propranolol", "setting": "[1]; 2 hr after dosing, individual dogs, listed as propranolol hydrochloride, 120 min", "result": "23 ng/mL and 14 ng/mL and 45 ng/mL and 51 ng/mL and 65 ng/mL and 19 ng/mL"}, {"measurement": "Plasma level of free propranolol", "setting": "[1]; 4 hr after dosing, individual dogs, listed as propranolol hydrochloride", "result": "trace"}, {"measurement": "Plasma level of free propranolol", "setting": "[1]; 4 hr after dosing, individual dogs, listed as propranolol hydrochloride, 240 min", "result": "26 ng/mL and 14 ng/mL and 12 ng/mL and 36 ng/mL and 33 ng/mL and 17 ng/mL"}, {"measurement": "Plasma level of free propranolol", "setting": "[1]; 6 hr after dosing, individual dogs, listed as propranolol hydrochloride", "result": "0 ng/ml and trace"}, {"measurement": "Plasma level of free propranolol", "setting": "[1]; 6 hr after dosing, individual dogs, listed as propranolol hydrochloride, 360 min", "result": "17 ng/mL and 21 ng/mL and 6 ng/mL"}, {"measurement": "half-life", "setting": "[1]; dog, plasma", "result": 1.8, "unit": "h"}, {"measurement": "AUC at 6 h", "setting": "[1]; dog, plasma, po, 80 mg, read-out: average AUC (0-6 hr.) of free propranolol, overall study", "result": 132, "unit": "ng·h/mL"}, {"measurement": "Plasma level of free propranolol", "setting": "[2]; 0 h, individual dogs", "result": 0, "unit": "ng/mL"}, {"measurement": "Mean plasma level of free propranolol", "setting": "[2]; 0 h, mean", "result": 0, "unit": "ng/mL"}, {"measurement": "Plasma level of free propranolol", "setting": "[2]; 1/2 hr after dosing, individual dogs, 30 min", "result": "232 ng/mL and 269 ng/mL and 144 ng/mL"}, {"measurement": "Plasma level of free propranolol", "setting": "[2]; 5 min after dosing, individual dogs, 5 min", "result": "391 ng/mL and 312 ng/mL and 376 ng/mL and 194 ng/mL"}, {"measurement": "Plasma level of free propranolol", "setting": "[2]; 10 min after dosing, individual dogs, 10 min", "result": "368 ng/mL and 319 ng/mL and 177 ng/mL"}, {"measurement": "Plasma level of free propranolol", "setting": "[2]; 15 min after dosing, individual dogs, 15 min", "result": "320 ng/mL and 271 ng/mL and 149 ng/mL"}, {"measurement": "Plasma level of free propranolol", "setting": "[2]; 1 hr after dosing, individual dogs, 60 min", "result": "207 ng/mL and 229 ng/mL and 128 ng/mL"}, {"measurement": "Plasma level of free propranolol", "setting": "[2]; 2 hr after dosing, individual dogs, 120 min", "result": "149 ng/mL and 119 ng/mL and 122 ng/mL"}, {"measurement": "Plasma level of free propranolol", "setting": "[2]; 4 hr after dosing, individual dogs, 240 min", "result": "114 ng/mL and 87 ng/mL and 61 ng/mL"}, {"measurement": "Plasma level of free propranolol", "setting": "[2]; 6 hr after dosing, individual dogs, 360 min", "result": "45 ng/mL and 28 ng/mL and 39 ng/mL"}, {"measurement": "concentration at 0.5 h", "setting": "[2]; dog, plasma, iv, 20 mg, 1/2 hr after dosing, individual dogs, read-out: Plasma level of free propranolol", "result": 280, "unit": "ng/mL"}, {"measurement": "concentration at 0.5 h", "setting": "[2]; dog, plasma, iv, 20 mg, 1/2 hr after dosing, mean, read-out: Mean plasma level of free propranolol", "result": 231, "unit": "ng/mL"}, {"measurement": "concentration at 5 min", "setting": "[2]; dog, plasma, iv, 20 mg, 5 min after dosing, mean, read-out: Mean plasma level of free propranolol", "result": 318, "unit": "ng/mL"}, {"measurement": "concentration at 10 min", "setting": "[2]; dog, plasma, iv, 20 mg, 10 min after dosing, mean, read-out: Mean plasma level of free propranolol", "result": 288, "unit": "ng/mL"}, {"measurement": "concentration at 0.25 h", "setting": "[2]; dog, plasma, iv, 20 mg, 15 min after dosing, mean, read-out: Mean plasma level of free propranolol", "result": 247, "unit": "ng/mL"}, {"measurement": "concentration at 1 h", "setting": "[2]; dog, plasma, iv, 20 mg, 1 hr after dosing, individual dogs, read-out: Plasma level of free propranolol", "result": 240, "unit": "ng/mL"}, {"measurement": "concentration at 1 h", "setting": "[2]; dog, plasma, iv, 20 mg, 1 hr after dosing, mean, read-out: Mean plasma level of free propranolol", "result": 201, "unit": "ng/mL"}, {"measurement": "concentration at 2 h", "setting": "[2]; dog, plasma, iv, 20 mg, 2 hr after dosing, individual dogs, read-out: Plasma level of free propranolol", "result": 191, "unit": "ng/mL"}, {"measurement": "concentration at 2 h", "setting": "[2]; dog, plasma, iv, 20 mg, 2 hr after dosing, mean, read-out: Mean plasma level of free propranolol", "result": 145, "unit": "ng/mL"}, {"measurement": "concentration at 4 h", "setting": "[2]; dog, plasma, iv, 20 mg, 4 hr after dosing, mean, read-out: Mean plasma level of free propranolol", "result": 79, "unit": "ng/mL"}, {"measurement": "concentration at 6 h", "setting": "[2]; dog, plasma, iv, 20 mg, 6 hr after dosing, individual dogs, read-out: Plasma level of free propranolol", "result": 53, "unit": "ng/mL"}, {"measurement": "concentration at 6 h", "setting": "[2]; dog, plasma, iv, 20 mg, 6 hr after dosing, mean, read-out: Mean plasma level of free propranolol", "result": 41, "unit": "ng/mL"}, {"measurement": "AUC at 6 h", "setting": "[2]; dog, plasma, iv, 20 mg, individual dogs, read-out: AUC 0-6 hr of free propranolol", "result": 974, "unit": "ng·h/mL"}, {"measurement": "AUC at 6 h", "setting": "[2]; dog, plasma, iv, 20 mg, read-out: average AUC of free propranolol", "result": 746, "unit": "ng·h/mL"}, {"measurement": "AUC 0-6 hr of free propranolol", "setting": "[2]; individual dogs, 360 min", "result": "744 ng·h/mL and 615 ng·h/mL and 534 ng·h/mL"}, {"measurement": "Plasma level of free propranolol", "setting": "[3]; 0 h, 80 mg propranolol HCl or 13.4 mg hemi-succinate HCl, individual dogs", "result": 0}, {"measurement": "AUC of free propranolol", "setting": "[3]; 13.4 mg hemi-succinate HCl or 80 mg propranolol HCl, dog #353 (101, 92), dog #250 (114, 168), 360 min", "result": 168}, {"measurement": "Plasma level of free propranolol", "setting": "[3]; 1/2 hour after dosing, 80 mg propranolol HCl or 13.4 mg hemi-succinate HCl, individual dogs, 30 min", "result": 18}, {"measurement": "Plasma level of free propranolol", "setting": "[3]; 1 hour after dosing, 80 mg propranolol HCl or 13.4 mg hemi-succinate HCl, individual dogs, 60 min", "result": 44}, {"measurement": "Plasma level of free propranolol", "setting": "[3]; 2 hours after dosing, 80 mg propranolol HCl or 13.4 mg hemi-succinate HCl, individual dogs, 120 min", "result": "51 and 24"}, {"measurement": "Plasma level of free propranolol", "setting": "[3]; 4 hours after dosing, 80 mg propranolol HCl or 13.4 mg hemi-succinate HCl, individual dogs, 240 min", "result": "26 and 7"}, {"measurement": "Plasma level of free propranolol", "setting": "[3]; 6 hours after dosing, 80 mg propranolol HCl or 13.4 mg hemi-succinate HCl, individual dogs", "result": 0}, {"measurement": "AUC at 6 h", "setting": "[3]; dog, plasma, po, 80 mg, 13.4 mg hemi-succinate HCl or 80 mg propranolol HCl, dog #353 (101, 92), dog #250 (114, 168)", "result": 92, "unit": "ng·h/mL"}, {"measurement": "concentration at 0.5 h", "setting": "[3]; dog, plasma, po, 80 mg, 1/2 hour after dosing, 80 mg propranolol HCl or 13.4 mg hemi-succinate HCl, individual dogs, read-out: Plasma level of free propranolol", "result": 10, "unit": "ng/mL"}, {"measurement": "concentration at 1 h", "setting": "[3]; dog, plasma, po, 80 mg, 1 hour after dosing, 80 mg propranolol HCl or 13.4 mg hemi-succinate HCl, individual dogs, read-out: Plasma level of free propranolol", "result": 38, "unit": "ng/mL"}, {"measurement": "concentration at 6 h", "setting": "[3]; dog, plasma, po, 80 mg, 6 hours after dosing, 80 mg propranolol HCl or 13.4 mg hemi-succinate HCl, individual dogs, read-out: Plasma level of free propranolol", "result": 9, "unit": "ng/mL"}, {"measurement": "unchanged active material reaching the systemic circulation after oral administration", "setting": "[4]; because of extensive metabolism", "result": "little unchanged active material"}, {"measurement": "patient to patient variation of plasma levels", "setting": "[4]; oral", "result": "large patient to patient variation"}]}]}
